# Results published in paper PMC3006138, “Fexinidazole – A New Oral Nitroimidazole Drug Candidate Entering Clinical Development for the Treatment of Sleeping Sickness” (PLoS Neglected Tropical Diseases, 2010).
# Read-outs that look alike come from different tables or passages of the source.
# Assay: Rat 28-day toxicokinetics
# Assay type: in vivo
# Conditions: plasma, po; for AUC: read-out: AUC within 24 hours post dosing; for half-life: read-out: apparent terminal half-life (converted)
# Method: In the rat repeated-dose toxicokinetic study, fexinidazole was administered orally by gavage once a day for 28 consecutive days to ten or fifteen Crl:CD (SD)IGS BR rats/sex/group at doses of 50, 200, or 800 mg/kg/day. A control group received the vehicle alone (5% Tween 80/0.5% methocel). Ten animals/sex/group were sacrificed at the end of the treatment period on day 29 or 30 of study. The remaining 5 animals/sex/group in the control and high-dose groups were sacrificed on day 43 at the end of a 2-weeks observation period. Systemic exposure to fexinidazole and its sulfoxide and sulfone metabolites was evaluated in three additional animals/sex/group. Samples were taken at predose, and 30 min, 1, 2, 4, 8 and 24 h after dosing on days 1, 14, and 28, and in addition at 48 and 72 h after treatment on day 28.
# Toxicokinetic Report for the study No. 0504-2007
# SD Standard deviation of the mean […]
# t1/2,z Terminal half-life tmax Time to peak plasma concentration
# ULOQ Upper limit of quantification
# The study was conducted according to the study protocol and related amendment.
# Fexinidazole was orally given by gavage once a day for 28 days to male and female Sprague Dawley rats according to the following scheme
# Fexinidazole was suspended with 5% Tween 80 in 0.5% Methyl cellulose 400 cP.
# 6.2. Sample Collection and Handling
# Blood samples (about 0.25 mL/sampling time) were withdrawn from retro-orbital sinus plexus under isofluorane anesthesia and put in heparinized plastic tubes kept on a ice-water bath, then centrifuged for 10 min at 1200g at +4°C and two aliquots of about 50 μL of plasma were stored in a freezer at -80°C until analysis. Blood was taken from three rats/gender/dose on Days 1 and 14 at pre-dose and 0.5, 1, 2, 4, 8 and 24 hours after dosing, on Day 28 at pre-dose and 1, 2, 4, 8, 24, 48 and 72 hours after dosing. After the administration of the vehicle, the samples were taken from three rats/gender at pre-dose and […]
# 6.3. Bioanalytical Method
# Rat plasma concentrations of Fexinidazole and its sulfoxide (M1) and sulfone (M2) metabolites were determined by a validated LC/MS/MS method. The calibration range for the assay was 5-1000 ng/mL for Fexinidazole and 25-25000 ng/mL for M1 and M2.
# Study samples containing analytes concentrations above the upper limit of quantitation were diluted with blank matrix prior to analysis.
# 6.4. Pharmacokinetic Calculations
# Pharmacokinetic evaluation was carried out using non-compartmental approach with the aid […]
# Excel spreadsheet (Microsoft Inc., Seattle, USA). […]
# In the calculations, the undetectable concentrations between detectable ones were ignored.
# After each dose level, Cmax and tmax of Fexinidazole and sulfoxide and sulfone metabolites […]
# linear trapezoidal rule up to the last detectable concentration. On Day 28, since the blood […]
# 24 hours post dosing was calculated and denoted AUC0-24. This AUC was calculated in order to compare AUC values on Day 28 to those on Day 1 and Day 14. On Day 28, in addition, the half-life of the terminal phase, t1/2,z, was determined by linear regression analysis of the natural-log concentration vs. time curve, where t1/2,z = ln(2)/slope of the regression line.
# Fexinidazole and metabolites accumulation ratios, based on Cmax (RA,Cmax), AUC0-24 (RA,AUC0-24) and AUC0-t(last) (RA,AUC0-t(last)), were calculated as the ratio between the parameters obtained on Day 14 and Day 28 to the corresponding one at Day 1. […]
# pharmacokinetic parameters of each compound sorted by dose, gender and day of dosing. […]
# compound are reported in Tables 1 and 2, whilst individual and mean parameters of each […]
# Individual and mean (±SD, CV%) plasma
# 2A1 - 19A1 of Appendix 1. Individual plasma concentrations of Fexinidazole and both metabolites are plot in Figures 1 - 9, whilst the mean concentrations are plot in Figures 10 - 15. Mean normalized Cmax and AUC0-t(last) values of Fexinidazole and metabolites vs. dose are plot in Figures 16 - 21.
# In-study bioanalytical validation data are reported in Appendix 2. All analytical batches met […]
# [1] = Sprague Dawley (Crl:CD (SD)IGS BR), 50 mg/kg/day, Day 28, female
# [2] = Sprague Dawley (Crl:CD (SD)IGS BR), 200 mg/kg/day, Day 28, female
# [3] = Sprague Dawley (Crl:CD (SD)IGS BR), 200 mg/kg/day, Day 28, male
# [4] = Sprague Dawley (Crl:CD (SD)IGS BR), 800 mg/kg/day, Day 28, female (n=2)
# [5] = Sprague Dawley (Crl:CD (SD)IGS BR), 800 mg/kg/day, Day 28, male
# [6] = Sprague-Dawley (Crl:CD (SD)IGS BR), 50 mg/kg/day, 50 mg/kg/day po, day 1
# [7] = Sprague-Dawley (Crl:CD (SD)IGS BR), 50 mg/kg/day, 50 mg/kg/day po, day 14
# [8] = Sprague-Dawley (Crl:CD (SD)IGS BR), 200 mg/kg/day, 200 mg/kg/day po, day 1
# [9] = both sexes, Sprague-Dawley (Crl:CD (SD)IGS BR), 200 mg/kg/day, 200 mg/kg/day po, day 14
# [10] = both sexes, Sprague-Dawley (Crl:CD (SD)IGS BR), 800 mg/kg/day, 800 mg/kg/day po, day 1
# [11] = both sexes, Sprague-Dawley (Crl:CD (SD)IGS BR), 800 mg/kg/day, 800 mg/kg/day po, day 14
smiles,measurement,setting,value
"CSc1ccc(OCc2ncc([N+](=O)[O-])n2C)cc1 [Fexinidazole, 1-methyl-2-((p-(methylthio)phenoxy)methyl)-5-nitroimidazole]",AUC,[1],1450 ± 335 ng·h/mL
same,half-life,[1],5.1 ± 5.1 h
same,half-life,"Sprague Dawley (Crl:CD (SD)IGS BR), 50 mg/kg/day, Day 28, male",4.7 ± 1.2 h
same,AUC,[2],4440 ± 514 ng·h/mL
same,half-life,[2],6.3 ± 4.5 h
same,AUC,[3],2330 ± 1760 ng·h/mL
same,half-life,[3],8.8 ± 4.8 h
same,AUC,[4],7640 ± 1780 ng·h/mL
same,half-life,[4],6.7 ± 2.3 h
same,AUC,[5],3170 ± 734 ng·h/mL
same,half-life,[5],11 ± 2.7 h
same,Cmax,[6],90 ± 70 ng/mL
same,Tmax,[6],1.42 ± 1.28 h
same,AUC(0-t),"Sprague-Dawley (Crl:CD (SD)IGS BR), 50 mg/kg/day, 50 mg/kg/day po, day 1, read-out: AUC0-t(last)",470 ± 340 ng·h/mL
same,Cmax,[7],180 ± 140 ng/mL
same,Tmax,[7],1.92 ± 1.2 h
same,AUC(0-t),"Sprague-Dawley (Crl:CD (SD)IGS BR), 50 mg/kg/day, 50 mg/kg/day po, day 14, read-out: AUC0-t(last)",830 ± 540 ng·h/mL
same,Cmax,[8],380 ± 280 ng/mL
same,Tmax,[8],1.92 ± 1.2 h
same,AUC(0-t),"both sexes, Sprague-Dawley (Crl:CD (SD)IGS BR), 200 mg/kg/day, 200 mg/kg/day po, day 1, read-out: AUC0-t(last)",2160 ± 1340 ng·h/mL
same,Cmax,[9],520 ± 300 ng/mL
same,Tmax,[9],2.08 ± 1.11 h
same,AUC(0-t),"both sexes, Sprague-Dawley (Crl:CD (SD)IGS BR), 200 mg/kg/day, 200 mg/kg/day po, day 14, read-out: AUC0-t(last)",3020 ± 1470 ng·h/mL
same,Cmax,[10],1480 ± 710 ng/mL
same,Tmax,[10],1.58 ± 0.66 h
same,AUC(0-t),"both sexes, Sprague-Dawley (Crl:CD (SD)IGS BR), 800 mg/kg/day, 800 mg/kg/day po, day 1, read-out: AUC0-t(last)",12800 ± 4100 ng·h/mL
same,Cmax,[11],1020 ± 870 ng/mL
same,Tmax,[11],3.17 ± 2.84 h
same,AUC(0-t),"both sexes, Sprague-Dawley (Crl:CD (SD)IGS BR), 800 mg/kg/day, 800 mg/kg/day po, day 14, read-out: AUC0-t(last)",9290 ± 5200 ng·h/mL
same,Cmax,"female, Sprague Dawley (Crl:CD (SD)IGS BR), 50 mg/kg, Day 1, female",149 ± 46 ng/mL
same,AUC(0-t),"female, Sprague Dawley (Crl:CD (SD)IGS BR), 50 mg/kg, Day 1, female, read-out: AUC0-t(last)",759 ± 153 ng·h/mL
same,Cmax,"female, Sprague Dawley (Crl:CD (SD)IGS BR), 50 mg/kg/day, Day 28, female",422 ± 358 ng/mL
same,AUC(0-t),"female, Sprague Dawley (Crl:CD (SD)IGS BR), 50 mg/kg/day, Day 28, female, read-out: AUC0-t(last)",1630 ± 570 ng·h/mL
same,Cmax,"female, Sprague Dawley (Crl:CD (SD)IGS BR), 200 mg/kg, Day 1, female",604 ± 211 ng/mL
same,AUC(0-t),"female, Sprague Dawley (Crl:CD (SD)IGS BR), 200 mg/kg, Day 1, female, read-out: AUC0-t(last)",3200 ± 856 ng·h/mL
same,Cmax,"female, Sprague Dawley (Crl:CD (SD)IGS BR), 200 mg/kg/day, Day 28, female",903 ± 87 ng/mL
same,AUC(0-t),"female, Sprague Dawley (Crl:CD (SD)IGS BR), 200 mg/kg/day, Day 28, female, read-out: AUC0-t(last)",4750 ± 508 ng·h/mL
same,Cmax,"female, Sprague Dawley (Crl:CD (SD)IGS BR), 800 mg/kg, Day 1, female",1480 ± 200 ng/mL
same,AUC(0-t),"female, Sprague Dawley (Crl:CD (SD)IGS BR), 800 mg/kg, Day 1, female, read-out: AUC0-t(last)",15700 ± 3610 ng·h/mL
same,Cmax,"female, Sprague Dawley (Crl:CD (SD)IGS BR), 800 mg/kg/day, Day 28, female (n=2)",749 ± 90 ng/mL
same,AUC(0-t),"female, Sprague Dawley (Crl:CD (SD)IGS BR), 800 mg/kg/day, Day 28, female (n=2), read-out: AUC0-t(last)",7940 ± 2210 ng·h/mL
same,Cmax,"male, Sprague Dawley (Crl:CD (SD)IGS BR), 50 mg/kg, Day 1, male",39 ± 17 ng/mL
same,AUC(0-t),"male, Sprague Dawley (Crl:CD (SD)IGS BR), 50 mg/kg, Day 1, male, read-out: AUC0-t(last)",178 ± 99 ng·h/mL
same,Cmax,"male, Sprague Dawley (Crl:CD (SD)IGS BR), 50 mg/kg/day, Day 28, male",133 ± 24 ng/mL
same,AUC(0-t),"male, Sprague Dawley (Crl:CD (SD)IGS BR), 50 mg/kg/day, Day 28, male, read-out: AUC0-t(last)",889 ± 287 ng·h/mL
same,Cmax,"male, Sprague Dawley (Crl:CD (SD)IGS BR), 200 mg/kg, Day 1, male",165 ± 97 ng/mL
same,AUC(0-t),"male, Sprague Dawley (Crl:CD (SD)IGS BR), 200 mg/kg, Day 1, male, read-out: AUC0-t(last)",1120 ± 708 ng·h/mL
same,Cmax,"male, Sprague Dawley (Crl:CD (SD)IGS BR), 200 mg/kg/day, Day 28, male",255 ± 136 ng/mL
same,AUC(0-t),"male, Sprague Dawley (Crl:CD (SD)IGS BR), 200 mg/kg/day, Day 28, male, read-out: AUC0-t(last)",4410 ± 3980 ng·h/mL
same,Cmax,"male, Sprague Dawley (Crl:CD (SD)IGS BR), 800 mg/kg, Day 1, male",1480 ± 1110 ng/mL
same,AUC(0-t),"male, Sprague Dawley (Crl:CD (SD)IGS BR), 800 mg/kg, Day 1, male, read-out: AUC0-t(last)",10000 ± 2160 ng·h/mL
same,Cmax,"male, Sprague Dawley (Crl:CD (SD)IGS BR), 800 mg/kg/day, Day 28, male",523 ± 127 ng/mL
same,AUC(0-t),"male, Sprague Dawley (Crl:CD (SD)IGS BR), 800 mg/kg/day, Day 28, male, read-out: AUC0-t(last)",11900 ± 5360 ng·h/mL
